Data from patent US20240116845A1, “INDENE COMPOUNDS, PHARMACEUTICAL COMPOSITIONS THEREOF, AND THEIR THERAPEUTIC APPLICATIONS” (NucMito Pharmaceuticals Co., Ltd., priority 2021, published 2024).

Tests used:
Type in all cases: cell-based
SW480 (colon cancer) = test: Antiproliferative activity, CCK-8 cell viability; conditions: Homo sapiens, 72 h, read-out: Inhibition of Cancerous Cells, SW480; for inhibition at 3.3 µM: compound concentration of 3.3 μM; for inhibition at 10 µM: compound concentration of 10 μM; for inhibition at 30 µM: compound concentration of 30 μM
How it was run: (§1)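 Viability relative to DMSO controls came from CCK-8 absorbance at 450 nm after 72 h exposure at 37°C. Compound concentrations were 3.3, 10 or 30 μM, in DMEM plus 10% FBS. Results are categorised by inhibition level: at least 50%, 30 to under 50%, or under 30%.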

[1] = test system: A431 (epidermoid carcinoma); test: Antiproliferative activity, CCK-8 cell viability; conditions: Homo sapiens, A-431, 72 h, read-out: Inhibition of Cancerous Cells, A431; for inhibition at 3.3 µM: compound concentration of 3.3 μM; for inhibition at 10 µM: compound concentration of 10 μM; for inhibition at 30 µM: compound concentration of 30 μM
How it was run: as §1

HepG2 (liver cancer) = test: Antiproliferative activity, CCK-8 cell viability; conditions: Homo sapiens, 72 h, read-out: Inhibition of Cancerous Cells, HepG2; for inhibition at 3.3 µM: compound concentration of 3.3 μM; for inhibition at 10 µM: compound concentration of 10 μM; for inhibition at 30 µM: compound concentration of 30 μM
How it was run: as §1

[2] = test system: A549 (lung adenocarcinoma); test: Antiproliferative activity, CCK-8 cell viability; conditions: Homo sapiens, 72 h, read-out: Inhibition of Cancerous Cells, A549; for inhibition at 3.3 µM: compound concentration of 3.3 μM; for inhibition at 10 µM: compound concentration of 10 μM; for inhibition at 30 µM: compound concentration of 30 μM
[3] = test system: B16F10 (malignant melanoma); test: Antiproliferative activity, CCK-8 cell viability; conditions: Mus musculus, B16-F10, 72 h, read-out: Inhibition of Cancerous Cells, B16F10; for inhibition at 3.3 µM: compound concentration of 3.3 μM; for inhibition at 10 µM: compound concentration of 10 μM; for inhibition at 30 µM: compound concentration of 30 μM
How it was run: as §1

HeLa (cervical cancer) = test: Antiproliferative activity, CCK-8 cell viability; conditions: Homo sapiens, 72 h, read-out: Inhibition of Cancerous Cells, HELA; for inhibition at 3.3 µM: compound concentration of 3.3 μM; for inhibition at 10 µM: compound concentration of 10 μM; for inhibition at 30 µM: compound concentration of 30 μM
[4] = test system: MDA-MB-231 (breast cancer); test: Antiproliferative activity, CCK-8 cell viability; conditions: Homo sapiens, 72 h, read-out: Inhibition of Cancerous Cells, MDA-MB-231; for inhibition at 3.3 µM: compound concentration of 3.3 μM; for inhibition at 10 µM: compound concentration of 10 μM; for inhibition at 30 µM: compound concentration of 30 μM
How it was run: as §1

[5] = test system: alpha-smooth muscle actin (α-SMA); test: Inhibition of TGF-β induced expression of alpha-smooth muscle actin in CFSC cells (western blot); conditions: compound at 10 μM, TGF-β (10 ng/mL), 24 hours
How it was run: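 Read-out is percent decrease in α-SMA western-blot band intensity, β-actin also probed, relative to TGF-β-only cells. CFSC cells were co-treated for 24 h at 37 °C with 10 ng/mL TGF-β and 10 μM compound in serum-free DMEM.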

Row | SMILES | inhibition at 3.3 µM (SW480 (colon cancer)) [%] | inhibition at 10 µM (SW480 (colon cancer)) [%] | inhibition at 30 µM (SW480 (colon cancer)) [%] | inhibition at 3.3 µM [1] [%] | inhibition at 10 µM [1] [%] | inhibition at 30 µM [1] [%] | inhibition at 3.3 µM (HepG2 (liver cancer)) [%] | inhibition at 10 µM (HepG2 (liver cancer)) [%] | inhibition at 30 µM (HepG2 (liver cancer)) [%] | inhibition at 3.3 µM [2] [%] | inhibition at 10 µM [2] [%] | inhibition at 30 µM [2] [%] | inhibition at 3.3 µM [3] [%] | inhibition at 10 µM [3] [%] | inhibition at 30 µM [3] [%] | inhibition at 3.3 µM (HeLa (cervical cancer)) [%] | inhibition at 10 µM (HeLa (cervical cancer)) [%] | inhibition at 30 µM (HeLa (cervical cancer)) [%] | inhibition at 3.3 µM [4] [%] | inhibition at 10 µM [4] [%] | also measured
1 | CC1=C(CC(=O)O)c2cc(F)cc(F)c2/C1=C/c1cccc(Oc2ccccc2)c1 [Compound E7, 2-[(1E)-5,7-Difluoro-1-(3-(phenoxy)benzylidene)-2-methyl-1H-inden-3-yl]-acetic acid] | < 30 | ≥ 50 | ≥ 50 | 30 to 50 | ≥ 50 | ≥ 50 | ≥ 50 | ≥ 50 | ≥ 50 | < 30 | < 30 | ≥ 50 | ≥ 50 | ≥ 50 | ≥ 50 | 30 to 50 | ≥ 50 | ≥ 50 | ≥ 50 | ≥ 50 | inhibition at 30 µM [4]: ≥ 50%; inhibition at 10 µM [5]: ≥ 80%
2 | CC1=C(CC(=O)O)c2cc(F)ccc2/C1=C\c1cccc(COc2ccc(F)cc2F)c1 [Compound A19, 2-[(1Z)-1-({3-[(2,4-Difluorophenoxy)methyl]phenyl}methylidene)-5-fluoro-2-methyl-1H-inden-3-yl]acetic acid] | ≥ 50 | ≥ 50 | ≥ 50 | ≥ 50 | ≥ 50 | ≥ 50 | 30 to 50 | ≥ 50 | ≥ 50 | < 30 | 30 to 50 | ≥ 50 | ≥ 50 | ≥ 50 | ≥ 50 | 30 to 50 | ≥ 50 | ≥ 50 | ≥ 50 | ≥ 50 | inhibition at 30 µM [4]: ≥ 50%; inhibition at 10 µM [5]: ≥ 80%
3 | CC1=C(CC(=O)O)c2cc(F)ccc2/C1=C\c1ccc(Oc2ccc(F)cc2)cc1C [Compound D14, 2-[(1Z)-1-{[2-Methyl-4-(4-fluorophenoxy)phenyl]methylidene}-5-fluoro-2-methyl-1H-inden-3-yl]acetic acid] | 30 to 50 | ≥ 50 | ≥ 50 | 30 to 50 | ≥ 50 | ≥ 50 | 30 to 50 | 30 to 50 | ≥ 50 | 30 to 50 | ≥ 50 | ≥ 50 | ≥ 50 | ≥ 50 | ≥ 50 | < 30 | 30 to 50 | ≥ 50 | 30 to 50 | ≥ 50 | inhibition at 30 µM [4]: ≥ 50%; inhibition at 10 µM [5]: ≥ 80%
4 | CC1=C(CC(=O)O)c2cc(F)ccc2/C1=C\c1ccc(Cc2ccc(F)cc2)cc1 [Compound A3, 2-[(1Z)-5-Fluoro-2-methyl-1-({4-[4-fluorobenzyl]phenyl}methylidene)-1H-inden-3-yl]acetic acid] | ≥ 50 | ≥ 50 | ≥ 50 | < 30 | ≥ 50 | ≥ 50 | ≥ 50 | ≥ 50 | ≥ 50 | < 30 | ≥ 50 | ≥ 50 | < 30 | 30 to 50 | ≥ 50 | < 30 | 30 to 50 | ≥ 50 | ≥ 50 | ≥ 50 | inhibition at 30 µM [4]: ≥ 50%; inhibition at 10 µM [5]: ≥ 80%
